How the values were obtained:
Crenolanib = compound: CC1(COc2ccc3c(c2)ncn3-c2ccc3cccc(N4CCC(N)CC4)c3n2)COC1 [Crenolanib]; experiment: relative viability (nuclei count vs DMSO), 5 days (fraction); higher = more cells survive
Outline: (§1)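 Cells of lung cancer lines were placed in 1536-well plates and kept overnight at 37 °C. Pinning then delivered five library-drug doses (not always all listed), spaced by √10, onto plates anchored with vehicle, and the cells were left 5 days without changing medium. One step fixed, permeabilised and stained them with Hoechst, and MetaXpress counted nuclei in 4× images. Viability, as a median over plates, is treated-well nuclei divided by vehicle-well nuclei, with acceptance only at control CV below 25% and at least one doubling.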

Tivantinib = compound: O=C1NC(=O)[C@@H](c2cn3c4c(cccc24)CCC3)[C@@H]1c1c[nH]c2ccccc12 [Tivantinib]; experiment: as above
Outline: as §1

Row | Cell Line | relative viability (Crenolanib; 0.01 µM) | relative viability (Crenolanib; 0.03162 µM) | relative viability (Crenolanib; 0.1 µM) | relative viability (Crenolanib; 0.3162 µM) | relative viability (Crenolanib; 1 µM) | relative viability (Tivantinib; 0.01 µM) | relative viability (Tivantinib; 0.03162 µM) | relative viability (Tivantinib; 0.1 µM) | relative viability (Tivantinib; 0.3162 µM)
1 | NCI-H647 | 0.983 | 0.915 | 0.973 | 1 | 0.929 | 1.06 | 0.992 | 0.881 | 0.946
2 | NCI-H650 | 0.999 | 0.798 | 0.963 | 0.868 | 0.887 | 0.98 | 0.671 | 0.896 | 0.943
3 | NCI-H661 | 0.962 | 1 | 1.02 | 1.04 | 1.01 | 1.07 | 0.971 | 0.956 | 0.811
4 | NCI-H727 | 0.949 | 1.05 | 0.873 | 0.943 | 0.909 | 0.941 | 0.897 | 0.802 | 0.631
5 | NCI-H838 | 1.03 | 0.975 | 0.946 | 0.964 | 0.749 | 0.952 | 0.962 | 0.798 | 0.932
6 | NCI-H1299 | 1.01 | 0.995 | 0.982 | 1.02 | 0.997 | 0.998 | 0.986 | 0.998 | 1.03
7 | NCI-H1355 | 1.07 | 0.994 | 0.955 | 1.03 | 0.856 | 1.01 | 0.921 | 0.973 | 1.01
8 | NCI-H1395 | 0.983 | 0.778 | 0.975 | 0.795 | 0.853 | 1.07 | 1.08 | 0.907 | 0.924
9 | NCI-H1437 | 0.983 | 1 | 0.977 | 1.04 | 1.02 | 0.993 | 0.984 | 0.908 | 0.989
10 | NCI-H1563 | 1.02 | 0.877 | 1 | 0.952 | 0.928 | 1.03 | 0.988 | 0.841 | 0.822
11 | NCI-H1623 | 1.08 | 0.968 | 0.876 | 1.01 | 0.94 | 0.978 | 0.961 | 0.911 | 
12 | NCI-H1648 | 0.878 | 0.605 | 0.871 | 0.865 | 1.07 | 0.818 | 0.863 | 0.984 | 0.323
13 | NCI-H1650 | 0.927 | 0.955 | 1.03 | 0.867 | 0.876 | 0.956 | 0.813 | 0.829 | 0.849
14 | NCI-H1651 | 0.952 | 0.928 | 0.958 | 0.989 | 0.932 | 1.02 | 0.938 | 0.874 | 0.971
15 | NCI-H1666 | 1.05 | 0.974 | 0.951 | 1.04 | 0.965 | 1.01 | 0.952 | 0.977 | 0.83
16 | NCI-H1703 | 0.948 | 0.759 | 0.534 | 0.313 | 0.21 | 1.22 | 0.923 | 0.895 | 0.795
17 | NCI-H1734 | 0.947 | 1.02 | 0.988 | 1.02 | 0.916 | 0.946 | 0.878 | 1.08 | 1.01
18 | NCI-H1755 | 0.965 | 1.03 | 0.989 | 1.03 | 0.959 | 1.05 | 0.991 | 0.956 | 1.09
19 | NCI-H1792 | 1.15 | 0.777 | 0.82 | 0.858 | 0.784 | 0.849 | 0.842 | 0.935 | 1.08

Row | Cell Line | relative viability (Crenolanib; 0.01 µM) | relative viability (Crenolanib; 0.03162 µM) | relative viability (Crenolanib; 0.1 µM) | relative viability (Crenolanib; 0.3162 µM) | relative viability (Crenolanib; 1 µM) | relative viability (Tivantinib; 0.01 µM) | relative viability (Tivantinib; 0.03162 µM) | relative viability (Tivantinib; 0.1 µM) | relative viability (Tivantinib; 0.3162 µM)
20 | NCI-H1793 | 0.909 | 1.02 | 0.811 | 1.07 | 0.88 | 0.923 | 0.98 | 0.837 | 0.61
21 | NCI-H1915 | 0.969 | 1 | 1.02 | 1.01 | 0.779 | 0.986 | 0.912 | 0.977 | 1.06
22 | NCI-H1944 | 1.06 | 0.934 | 0.964 | 0.985 | 0.773 | 0.922 | 0.875 | 0.882 | 0.717
23 | NCI-H1975 | 1.1 | 0.977 | 0.907 | 0.887 | 0.838 | 1.02 | 0.956 | 0.837 | 0.825
24 | NCI-H1993 | 0.985 | 0.889 | 0.919 | 1.06 | 0.925 | 1 | 0.897 | 0.927 | 0.721
25 | NCI-H2009 | 1.05 | 1.02 | 0.991 | 0.991 | 0.89 | 0.985 | 0.954 | 0.967 | 1.07
26 | NCI-H2023 | 1.1 | 1.03 | 0.952 | 1.17 | 0.785 | 1.02 | 0.859 | 0.856 | 0.824
27 | NCI-H2085 | 1 | 1.01 | 0.948 | 0.997 | 0.978 | 1.03 | 0.981 | 0.974 | 0.905
28 | NCI-H2087 | 0.938 | 1.04 | 0.88 | 1.05 | 0.967 | 1.11 | 0.936 | 0.95 | 1.06
29 | NCI-H2126 | 1.03 | 1.05 | 0.937 | 0.987 | 0.928 | 0.959 | 0.945 | 0.989 | 0.869
30 | NCI-H2170 | 0.998 | 1.04 | 0.943 | 1.01 | 1.01 | 1.01 | 0.922 | 0.921 | 
31 | NCI-H2228 | 0.944 | 1 | 0.871 | 1.11 | 1.1 | 1.03 | 0.893 | 0.931 | 0.815
32 | NCI-H2342 | 1.07 | 0.844 | 0.924 | 1.09 | 0.968 | 1.1 | 0.983 | 0.934 | 0.815
33 | NCI-H2347 | 1.08 | 0.934 | 0.758 | 1.1 | 1.03 | 1.16 | 0.988 | 1.02 | 1.07
34 | NCI-H2405 | 0.999 | 0.885 | 0.81 | 1 | 0.871 | 1.07 | 1.01 | 0.983 | 1.03
35 | NCI-H3122 | 1.02 | 0.989 | 0.98 | 1.1 | 1.1 | 0.986 | 1 | 0.923 | 0.877
36 | PC-3 [JPC-3] | 1.08 | 1.01 | 0.93 | 1.06 | 0.977 | 1.04 | 1.13 | 1.08 | 0.697
37 | PC-14 | 1.13 | 0.92 | 0.997 | 1.02 | 0.821 | 0.946 | 0.985 | 0.99 | 0.773

Source: the supplement of paper PMC10307832
